Experimental data as given in patent US20090197942A1, “Method For Producing Polyphenol-Rich Composition” (KYUSAI CO., LTD., priority 2006, published 2009).

Test system: spontaneously hypertensive rats (SHR)
Experiment: Test for inhibiting hypertension in rats (systolic BP at the tail pulse), SHR
Format: in vivo
Details: for changes in blood pressure (inhibition of hypertension): male SHR, oral once a day for 8 weeks, quercetin 0.3-2.7 mg/day/kg and/or arginine 0.03-0.15 mg/day/kg, FIG. 2
Method: Quercetin was extracted by adding 100 g of washed onion skins to 10 liters of water heated to 80° C., and impurities were removed to obtain quercetin-containing solution. The amount of quercetin contained in the quercetin-containing solution was 0.1 mg/ml. The quercetin-containing solution was appropriately concentrated with an evaporator.
11 week old male spontaneously hypertensive rats (SHR) were divided into A to I groups (9 groups consisting of 5 rats per group) and 11 week old male normotensive Wistar Kyoto (WKY) rats were divided into J to L groups (3 groups consisting of 5 rats per group) so that averages of weight and blood pressure (BP) of the respective groups were nearly equal. They were pre-bred in each breeding cage at 22.0±1.0° C. temperature, 60±10% of humidity and 12 hour light-dark cycles for a week while taking feeds and water ad libitum.
After the pre-breeding period, they were bred with the same conditions for 8 weeks. The quercetin-containing solution obtained in the above-mentioned preparation method and commercially-available arginine powder (produced by Ajinomoto Co., Inc.) were blended together so that amounts of quercetin and arginine would be the respective amounts in Table 7, below. Each mixture was orally administered to the rats in each group once a day. The rats took feed and water ad libitum during the test.
The blood pressure (BP) of rats was measured once a week. After each rat was warmed and climatized itself in a warmer at 38° C. for a few minutes, a systolic BP at the tail pulse was measured with an automatic sphygmomanometer (BP-98A; Softron Co., Ltd.) In each rat, the BP was measured for three times per one measurement and an average of the three measured values was recorded.

Structure (SMILES) | changes in blood pressure (inhibition of hypertension) | inhibition of hypertension with purified quercetin instead of quercetin-containing solution (same test, purified quercetin used instead of the quercetin-containing solution)
N=C(N)NCCC[C@H](N)C(=O)O [arginine] | hypertensions were inhibited | –
O=c1c(O)c(-c2ccc(O)c(O)c2)oc2cc(O)cc(O)c12 [purified quercetin, quercetin] | – | a similar result can be achieved
O=c1c(O)c(-c2ccc(O)c(O)c2)oc2cc(O)cc(O)c12 [quercetin] | hypertensions were inhibited | –
